Reference: ChEMBL document CHEMBL1201862, “PubChem BioAssay data set” (2004)
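Results reflect a 48-hour exposure of cells in 96-well plates to compound at five concentrations. Here, GI50 denotes the concentration required for 50% inhibition of growth.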 Active and inactive are the calls of the source. Rule as the data show it: active = GI50 up to about 1.1 µM and inactive = higher.

What was measured:
Test in all cases: NCI tumour cell line growth inhibition, 48 h
786-0 = system: 786-0
SNB-75 = system: SNB-75
M14 = system: M14
UACC-257 = system: UACC-257
NCI/ADR-RES = system: NCI/ADR-RES
SR = system: SR
HT-29 = system: HT-29
MOLT-4 = system: MOLT-4
SW-620 = system: SW-620
MDA-MB-231 = system: MDA-MB-231
ACHN = system: ACHN
HL-60 = system: HL-60
OVCAR-3 = system: OVCAR-3
SK-MEL-2 = system: SK-MEL-2
KM12 = system: KM12
OVCAR-5 = system: OVCAR-5
A498 = system: A498
SF-268 = system: SF-268
Hs-578T = system: Hs-578T

Measured: GI50

COc1ccc(N[C@H]([C@@H](c2ccccc2)[S+]([O-])c2ccc(C)cc2)C(F)(F)F)cc1 (stereo partly drawn)
inactive: 786-0 39 µM | SNB-75 24.8 µM | M14 45.6 µM | UACC-257 > 100 µM | NCI/ADR-RES 87.3 µM | SR > 100 µM | HT-29 31.8 µM | MOLT-4 34.9 µM | SW-620 61.1 µM | MDA-MB-231 32.9 µM | ACHN 35 µM | HL-60 19.1 µM | OVCAR-3 > 100 µM | SK-MEL-2 40 µM | KM12 33.4 µM | OVCAR-5 40.6 µM

CCCC(=O)C1=C(O)C(Cc2c(O)c(C)c(O)c(C(=O)CCC)c2O)=C(O)C(C)(C)C1=O
inactive: A498 46.8 µM | 786-0 > 50 µM | SNB-75 29.4 µM | M14 > 50 µM | UACC-257 > 50 µM | SR 14.7 µM | HT-29 20.4 µM | MOLT-4 11 µM | SF-268 34.8 µM | SW-620 13.9 µM | MDA-MB-231 > 50 µM | ACHN > 50 µM | OVCAR-3 > 50 µM | Hs-578T 40.6 µM | SK-MEL-2 22.4 µM | KM12 23.8 µM | OVCAR-5 11.9 µM

CC1C2=C(CCCC2=O)N(c2ccc(Cl)cc2)C2=C1C(=O)CCC2
inactive: A498 > 100 µM | 786-0 > 100 µM | SNB-75 16.3 µM | M14 > 100 µM | NCI/ADR-RES 71 µM | SR 39.2 µM | HT-29 45.6 µM | MOLT-4 20.3 µM | SF-268 > 100 µM | SW-620 > 100 µM | ACHN 91.2 µM | HL-60 31.3 µM | OVCAR-3 69.8 µM | Hs-578T 50.1 µM | KM12 > 100 µM | OVCAR-5 > 100 µM

COc1c2cc([N+](=O)[O-])cc1CN(C(=O)C(F)(F)F)CCOCCN(C(=O)C(F)(F)F)C2
inactive: A498 > 100 µM | 786-0 > 100 µM | SNB-75 69.7 µM | M14 > 100 µM | UACC-257 > 100 µM | HT-29 > 100 µM | MOLT-4 > 100 µM | SF-268 > 100 µM | SW-620 > 100 µM | MDA-MB-231 > 100 µM | ACHN > 100 µM | HL-60 > 100 µM | OVCAR-3 > 100 µM | Hs-578T > 100 µM | SK-MEL-2 > 100 µM | KM12 > 100 µM | OVCAR-5 > 100 µM

COC(=O)C/N=C1\NC(=S)N(Cc2ccc(OC)cc2)C12CCCC2
inactive: A498 > 100 µM | 786-0 > 100 µM | SNB-75 > 100 µM | M14 > 100 µM | UACC-257 > 100 µM | NCI/ADR-RES > 100 µM | SR > 100 µM | HT-29 > 100 µM | MOLT-4 > 100 µM | SF-268 > 100 µM | SW-620 > 100 µM | MDA-MB-231 > 100 µM | ACHN > 100 µM | OVCAR-3 > 100 µM | SK-MEL-2 > 100 µM | KM12 > 100 µM | OVCAR-5 > 100 µM

CCOC(OCC)N1C(=O)C2(C(OCC)OCC)CC3C(OC(=O)N3N)c3cccc1c32 (stereo not drawn)
inactive: A498 61.2 µM | 786-0 > 100 µM | UACC-257 > 100 µM | NCI/ADR-RES > 100 µM | SR > 100 µM | HT-29 > 100 µM | MOLT-4 79.4 µM | SF-268 > 100 µM | SW-620 > 100 µM | MDA-MB-231 > 100 µM | ACHN > 100 µM | HL-60 > 100 µM | OVCAR-3 > 100 µM | KM12 > 100 µM | OVCAR-5 > 100 µM

C=CCCC(=O)C(=[N+]=[N-])C(=O)CCC(=O)c1ccccc1
inactive: A498 > 10 µM | 786-0 > 10 µM | SNB-75 8.38 µM | M14 > 10 µM | UACC-257 > 10 µM | SR > 10 µM | HT-29 > 10 µM | MOLT-4 > 10 µM | SF-268 > 10 µM | SW-620 > 10 µM | MDA-MB-231 > 10 µM | ACHN > 10 µM | OVCAR-3 > 10 µM | Hs-578T > 10 µM | SK-MEL-2 > 10 µM | OVCAR-5 > 10 µM

CC(C)C(N)=O [ISOBUTYRAMIDE]
inactive: 786-0 > 5000 µM | SNB-75 > 5000 µM | M14 > 5000 µM | UACC-257 > 5000 µM | SR > 5000 µM | HT-29 > 5000 µM | MOLT-4 > 5000 µM | SF-268 > 5000 µM | SW-620 > 5000 µM | ACHN > 5000 µM | HL-60 > 5000 µM | SK-MEL-2 > 5000 µM | KM12 > 5000 µM | OVCAR-5 > 5000 µM

O=C1C2=Cc3ccccc3OC2(O)Oc2cc(O)cc(O)c21 (stereo not drawn)
inactive: A498 > 100 µM | 786-0 > 100 µM | SNB-75 > 100 µM | M14 > 100 µM | UACC-257 > 100 µM | NCI/ADR-RES > 100 µM | HT-29 > 100 µM | MOLT-4 > 100 µM | SF-268 > 100 µM | SW-620 > 100 µM | MDA-MB-231 > 100 µM | ACHN > 100 µM | OVCAR-3 > 10 µM | SK-MEL-2 > 100 µM | KM12 > 100 µM | OVCAR-5 > 100 µM

CC1(c2ccccc2)CC(c2ccccc2)=NO1 (stereo not drawn)
inactive: A498 > 100 µM | 786-0 > 100 µM | SNB-75 > 100 µM | M14 > 100 µM | UACC-257 > 100 µM | SR > 100 µM | HT-29 > 100 µM | MOLT-4 > 100 µM | SF-268 > 100 µM | SW-620 > 100 µM | ACHN > 100 µM | HL-60 > 100 µM | OVCAR-3 > 100 µM | SK-MEL-2 > 100 µM | KM12 > 100 µM | OVCAR-5 > 100 µM

CCCCCCCC(=O)N1C2CC3CCC2(CS1(=O)=O)C3(C)C (stereo not drawn)
inactive: A498 76.9 µM | 786-0 15.7 µM | SNB-75 24.7 µM | M14 17.5 µM | UACC-257 24.5 µM | SR 18.6 µM | HT-29 > 10 µM | MOLT-4 17.3 µM | SF-268 35.4 µM | SW-620 23.3 µM | ACHN 42.1 µM | HL-60 20 µM | OVCAR-3 > 10 µM | Hs-578T 15.6 µM | KM12 26.2 µM | OVCAR-5 44.8 µM

COC(=O)[C@H](Cc1ccccc1)NC(=O)N1CCCN(C(=O)N[C@@H](Cc2ccccc2)C(=O)OC)CCCN(C(=O)N[C@@H](Cc2ccccc2)C(=O)OC)CCC1
inactive: A498 19.9 µM | 786-0 17.5 µM | SNB-75 16.1 µM | M14 18 µM | UACC-257 18.2 µM | NCI/ADR-RES 30.8 µM | HT-29 16.8 µM | MOLT-4 17.7 µM | SF-268 17.5 µM | SW-620 19.5 µM | ACHN 17.1 µM | HL-60 32.8 µM | OVCAR-3 16.9 µM | Hs-578T 20.7 µM | SK-MEL-2 15 µM | KM12 28.9 µM | OVCAR-5 15.7 µM
